Assay: Inhibitory activity against gastrin receptor

Row | Structure (SMILES) | IC50
1 | Cc1cccc(NC(=O)NC2N=C(c3ccccc3)c3ccccc3N(CC(=O)NCCCOc3cccc(CN4CCCCC4)c3)C2=O)c1 (stereo not drawn) [2-[2-Oxo-5-phenyl-3-(3-m-tolyl-ureido)-2,3-dihydro-benzo[e][1,4]diazepin-1-yl]-N-[3-(3-piperidin-1-ylmethyl-phenoxy)-propyl]-acetamide] | 155 nM
2 | CN1C(=O)[C@H](NC(=O)Nc2cccc(CC(=O)NCCCOc3cccc(CN4CCCCC4)c3)c2)N=C(c2ccccc2)c2ccccc21 [2-{3-[3-((R)-1-Methyl-2-oxo-5-phenyl-2,3-dihydro-1H-benzo[e][1,4]diazepin-3-yl)-ureido]-phenyl}-N-[3-(3-piperidin-1-ylmethyl-phenoxy)-propyl]-acetamide] | 230 nM
3 | CN1C(=O)[C@H](NC(=O)Nc2cccc(C(=O)NCCCOc3cccc(CN4CCCCC4)c3)c2)N=C(c2ccccc2)c2ccccc21 [3-[3-((R)-1-Methyl-2-oxo-5-phenyl-2,3-dihydro-1H-benzo[e][1,4]diazepin-3-yl)-ureido]-N-[3-(3-piperidin-1-ylmethyl-phenoxy)-propyl]-benzamide] | 550 nM
4 | Cc1cccc(NC(=O)NC2N=C(c3cccc(OCC(=O)NCCCC(=O)NCCCOc4cccc(CN5CCCCC5)c4)c3)c3ccccc3N(C)C2=O)c1 (stereo not drawn) [4-(2-{3-[1-Methyl-2-oxo-3-(3-m-tolyl-ureido)-2,3-dihydro-1H-benzo[e][1,4]diazepin-5-yl]-phenoxy}-acetylamino)-N-[3-(3-piperidin-1-ylmethyl-phenoxy)-propyl]-butyramide] | 60 nM
5 | Cc1cccc(NC(=O)NC2N=C(c3cccc(OCC(=O)NCCCCCC(=O)NCCCOc4cccc(CN5CCCCC5)c4)c3)c3ccccc3N(C)C2=O)c1 (stereo not drawn) [6-(2-{3-[1-Methyl-2-oxo-3-(3-m-tolyl-ureido)-2,3-dihydro-1H-benzo[e][1,4]diazepin-5-yl]-phenoxy}-acetylamino)-hexanoic acid [3-(3-piperidin-1-ylmethyl-phenoxy)-propyl]-amide] | 32 nM
6 | CN1C(=O)[C@H](NC(=O)Nc2cccc(CC(=O)NCCCCCC(=O)NCCSCc3csc(N=C(N)N)n3)c2)N=C(c2ccccc2)c2ccccc21 [6-(2-{3-[3-((R)-1-Methyl-2-oxo-5-phenyl-2,3-dihydro-1H-benzo[e][1,4]diazepin-3-yl)-ureido]-phenyl}-acetylamino)-hexanoic acid [2-(2-guanidino-thiazol-4-ylmethylsulfanyl)-ethyl]-amide] | 45 nM
7 | Cc1cccc(NC(=O)NC2N=C(c3ccccc3)c3ccccc3N(CC(=O)NCCSCc3csc(N=C(N)N)n3)C2=O)c1 (stereo not drawn) [N-[2-(2-Guanidino-thiazol-4-ylmethylsulfanyl)-ethyl]-2-[2-oxo-5-phenyl-3-(3-m-tolyl-ureido)-2,3-dihydro-benzo[e][1,4]diazepin-1-yl]-acetamide] | 3 nM
8 | Cc1cccc(NC(=O)NC2N=C(c3cccc(OCC(=O)NCCSCc4csc(N=C(N)N)n4)c3)c3ccccc3N(C)C2=O)c1 (stereo not drawn) [N-[2-(2-Guanidino-thiazol-4-ylmethylsulfanyl)-ethyl]-2-{3-[1-methyl-2-oxo-3-(3-m-tolyl-ureido)-2,3-dihydro-1H-benzo[e][1,4]diazepin-5-yl]-phenoxy}-acetamide] | 135 nM

The remaining lines, values ahead:

Row | IC50 | Structure (SMILES)
9 | 790 nM | Cc1cccc(NC(=O)NC2N=C(c3ccccc3)c3ccccc3N(CC(=O)NCC(=O)NCCCOc3cccc(CN4CCCCC4)c3)C2=O)c1 (stereo not drawn) [2-[2-Oxo-5-phenyl-3-(3-m-tolyl-ureido)-2,3-dihydro-benzo[e][1,4]diazepin-1-yl]-N-{[3-(3-piperidin-1-ylmethyl-phenoxy)-propylcarbamoyl]-methyl}-acetamide]
10 | 570 nM | Cc1cccc(NC(=O)NC2N=C(c3cccc(OCC(=O)NCCCOc4cccc(CN5CCCCC5)c4)c3)c3ccccc3N(C)C2=O)c1 (stereo not drawn) [2-{3-[1-Methyl-2-oxo-3-(3-m-tolyl-ureido)-2,3-dihydro-1H-benzo[e][1,4]diazepin-5-yl]-phenoxy}-N-[3-(3-piperidin-1-ylmethyl-phenoxy)-propyl]-acetamide]
11 | 63 nM | Cc1cccc(NC(=O)NC2N=C(c3cccc(OCC(=O)NCC(=O)NCCCOc4cccc(CN5CCCCC5)c4)c3)c3ccccc3N(C)C2=O)c1 (stereo not drawn) [2-{3-[1-Methyl-2-oxo-3-(3-m-tolyl-ureido)-2,3-dihydro-1H-benzo[e][1,4]diazepin-5-yl]-phenoxy}-N-{[3-(3-piperidin-1-ylmethyl-phenoxy)-propylcarbamoyl]-methyl}-acetamide]
12 | 200 nM | Cc1cccc(NC(=O)NC2N=C(c3cccc(OCC(=O)NCCC(=O)NCCCOc4cccc(CN5CCCCC5)c4)c3)c3ccccc3N(C)C2=O)c1 (stereo not drawn) [3-(2-{3-[1-Methyl-2-oxo-3-(3-m-tolyl-ureido)-2,3-dihydro-1H-benzo[e][1,4]diazepin-5-yl]-phenoxy}-acetylamino)-N-[3-(3-piperidin-1-ylmethyl-phenoxy)-propyl]-propionamide]
13 | 136 nM | CN1C(=O)[C@H](NC(=O)Nc2cccc(CC(=O)NCCC(=O)NCCCOc3cccc(CN4CCCCC4)c3)c2)N=C(c2ccccc2)c2ccccc21 [3-(2-{3-[3-((R)-1-Methyl-2-oxo-5-phenyl-2,3-dihydro-1H-benzo[e][1,4]diazepin-3-yl)-ureido]-phenyl}-acetylamino)-N-[3-(3-piperidin-1-ylmethyl-phenoxy)-propyl]-propionamide]
14 | 185 nM | Cc1cccc(NC(=O)NC2N=C(c3ccccc3)c3ccccc3N(CC(=O)NCCC(=O)NCCCOc3cccc(CN4CCCCC4)c3)C2=O)c1 (stereo not drawn) [3-{2-[2-Oxo-5-phenyl-3-(3-m-tolyl-ureido)-2,3-dihydro-benzo[e][1,4]diazepin-1-yl]-acetylamino}-N-[3-(3-piperidin-1-ylmethyl-phenoxy)-propyl]-propionamide]
15 | 115 nM | CN1C(=O)[C@H](NC(=O)Nc2cccc(CC(=O)NCCCC(=O)NCCCOc3cccc(CN4CCCCC4)c3)c2)N=C(c2ccccc2)c2ccccc21 [4-(2-{3-[3-((R)-1-Methyl-2-oxo-5-phenyl-2,3-dihydro-1H-benzo[e][1,4]diazepin-3-yl)-ureido]-phenyl}-acetylamino)-N-[3-(3-piperidin-1-ylmethyl-phenoxy)-propyl]-butyramide]
16 | 210 nM | Cc1cccc(NC(=O)NC2N=C(c3ccccc3)c3ccccc3N(CC(=O)NCCCC(=O)NCCCOc3cccc(CN4CCCCC4)c3)C2=O)c1 (stereo not drawn) [4-{2-[2-Oxo-5-phenyl-3-(3-m-tolyl-ureido)-2,3-dihydro-benzo[e][1,4]diazepin-1-yl]-acetylamino}-N-[3-(3-piperidin-1-ylmethyl-phenoxy)-propyl]-butyramide]
17 | 110 nM | CN1C(=O)[C@H](NC(=O)Nc2cccc(CC(=O)NCCCCCC(=O)NCCCOc3cccc(CN4CCCCC4)c3)c2)N=C(c2ccccc2)c2ccccc21 [6-(2-{3-[3-((R)-1-Methyl-2-oxo-5-phenyl-2,3-dihydro-1H-benzo[e][1,4]diazepin-3-yl)-ureido]-phenyl}-acetylamino)-hexanoic acid [3-(3-piperidin-1-ylmethyl-phenoxy)-propyl]-amide]
18 | 16 nM | Cc1cccc(NC(=O)NC2N=C(c3ccccc3)c3ccccc3N(CC(=O)NCCCCCC(=O)NCCCOc3cccc(CN4CCCCC4)c3)C2=O)c1 (stereo not drawn) [6-{2-[2-Oxo-5-phenyl-3-(3-m-tolyl-ureido)-2,3-dihydro-benzo[e][1,4]diazepin-1-yl]-acetylamino}-hexanoic acid [3-(3-piperidin-1-ylmethyl-phenoxy)-propyl]-amide]

— BindingDB's records for doi:10.1016/S0960-894X(96)00248-X (1996)
